Values joined by “and” are separate entries in the source; they are usually repeats but may differ in a detail not shown here. Equal values may be shown once. Inconclusive results and toxic doses are left out.

Experimental findings from PubChem BioAssay AID248 (DTP/NCI, 2004) are described below.

This experiment deals with L1210 leukemia ip in BDF1 mice, survival T/C. Description: NCI In Vivo Anticancer Drug Screen. Data for tumor model L1210 Leukemia (intraperitoneal) in B6D2F1 (BDF1) mice. As to conditions: endpoint: mean survival time, higher = longer survival. In outline: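 Survival endpoint. Drug-treated group vs vehicle group, expressed as T divided by C. Tumor passaged by transplantation.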

Where [1] appears, read: dose: 50.0 mg/kg/injection, schedule: Q01DX009 (ip), vehicle: saline with Tween-80.
Where [2] appears, read: dose: 100.0 mg/kg/injection, schedule: Q01DX009 (ip), vehicle: Klucel (hydroxypropylcellulose) (HPC).
[3] abbreviates: dose: 100.0 mg/kg/injection, schedule: Q01DX009 (ip), vehicle: saline with Tween-80.
[4] abbreviates: dose: 100.0 mg/kg/injection, schedule: Q04DX003 (ip), vehicle: Klucel (hydroxypropylcellulose) (HPC).
Where [5] appears, read: dose: 200.0 mg/kg/injection, schedule: Q01DX009 (ip), vehicle: Klucel (hydroxypropylcellulose) (HPC).
[6] abbreviates: dose: 200.0 mg/kg/injection, schedule: Q04DX003 (ip), vehicle: Klucel (hydroxypropylcellulose) (HPC).
[7] abbreviates: dose: 400.0 mg/kg/injection, schedule: Q04DX003 (ip), vehicle: Klucel (hydroxypropylcellulose) (HPC).
The mark [8] stands for this setting: dose: 25.0 mg/kg/injection, schedule: Q04DX003 (ip), vehicle: Klucel (hydroxypropylcellulose) (HPC).
Setting [9] is: dose: 100.0 mg/kg/injection, schedule: Q01DX001 (ip), vehicle: carboxymethylcellulose (CMC).
Setting [10] is: dose: 200.0 mg/kg/injection, schedule: Q01DX001 (ip), vehicle: carboxymethylcellulose (CMC).
Setting [11] is: dose: 400.0 mg/kg/injection, schedule: Q01DX001 (ip), vehicle: carboxymethylcellulose (CMC).
Where [12] appears, read: dose: 50.0 mg/kg/injection, schedule: Q01DX009 (ip), vehicle: Klucel (hydroxypropylcellulose) (HPC).
[13] abbreviates: dose: 12.5 mg/kg/injection, schedule: Q01DX009 (ip), vehicle: Klucel (hydroxypropylcellulose) (HPC).
The mark [14] stands for this setting: dose: 25.0 mg/kg/injection, schedule: Q01DX009 (ip), vehicle: Klucel (hydroxypropylcellulose) (HPC).

Consider `O=C(O)CCC(=O)c1cccc([N+](=O)[O-])c1`, for which the T/C is 103 % of control under setting [1]; 95 % of control under setting [2]; 107 % of control under setting [3]; 91 % of control under setting [4]; 103 % of control under setting [5]; 87 % of control (dose: 200.0 mg/kg/injection, schedule: Q01DX009 (ip), vehicle: saline with Tween-80). For the same molecule, the T/C reads like this: under setting [6], 94 % of control; under setting [7], 94 % of control.
Regarding `CC(c1ccccc1)n1cncc1C(=O)N(C)C` (configuration not stated), the T/C is 96 % of control (dose: 50.0 mg/kg/injection, schedule: Q01DX009 (ip), vehicle: saline); 101 % of control (dose: 100.0 mg/kg/injection, schedule: Q01DX009 (ip), vehicle: saline); 97 % of control (dose: 100.0 mg/kg/injection, schedule: Q04DX003 (ip), vehicle: saline); 97 % of control (dose: 200.0 mg/kg/injection, schedule: Q01DX009 (ip), vehicle: saline); 93 % of control (dose: 200.0 mg/kg/injection, schedule: Q04DX003 (ip), vehicle: saline).
As to `CCOC(=O)Oc1c(OC)cc(C(=O)O[C@@H]2C[C@@H]3CN4CCc5c([nH]c6cc(OC)ccc56)[C@H]4C[C@@H]3[C@H](C(=O)OC)[C@H]2OC)cc1OC`, the T/C reads like this: under setting [8], 101 % of control; (dose: 50.0 mg/kg/injection, schedule: Q04DX003 (ip), vehicle: Klucel (hydroxypropylcellulose) (HPC)) 106 % of control; under setting [4], 95 % of control; under setting [6], 98 % of control.
With `CC12CCC(CC1)C2CO` (configuration not stated), the T/C was 105 % of control under setting [1] and 98 % of control under setting [3].
Take `Cc1nc(N)[nH]c(=O)c1CCCNc1ccc(/C=C/C2(CCl)OCCO2)cc1`: the T/C is 92 % of control (dose: 50.0 mg/kg/injection, schedule: Q01DX Z (ip), vehicle: carboxymethylcellulose (CMC)); 97 % of control (dose: 200.0 mg/kg/injection, schedule: Q01DX Z (ip), vehicle: carboxymethylcellulose (CMC)); 94 % of control (dose: 400.0 mg/kg/injection, schedule: Q01DX Z (ip), vehicle: carboxymethylcellulose (CMC)).
As to `Cc1ccc(C)c(S(=O)(=O)OCC2CO2)c1` (configuration not stated), the T/C runs as follows: (dose: 100.0 mg/kg/injection, schedule: Q04DX003 (ip), vehicle: saline with Tween-80) 104 % of control; (dose: 200.0 mg/kg/injection, schedule: Q04DX003 (ip), vehicle: saline with Tween-80) 101 % of control; (dose: 400.0 mg/kg/injection, schedule: Q04DX003 (ip), vehicle: saline with Tween-80) 101 % of control.
On to `O=NN(CCF)C(=O)NC12CC3CC(CC(C3)C1)C2`, for which the T/C runs as follows: (dose: 40.0 mg/kg/injection, schedule: Q01DX001 (ip), vehicle: carboxymethylcellulose (CMC)) 124 % of control; (dose: 60.0 mg/kg/injection, schedule: Q01DX001 (ip), vehicle: carboxymethylcellulose (CMC)) 190 % of control; (dose: 93.0 mg/kg/injection, schedule: Q01DX001 (ip), vehicle: carboxymethylcellulose (CMC)) 192 % of control; (dose: 187.0 mg/kg/injection, schedule: Q01DX001 (ip), vehicle: carboxymethylcellulose (CMC)) 259 % of control.
In the case of `Fc1cccc2c1[nH]c1cc3ccncc3cc12`, the T/C was 98 % of control under setting [4], 90 % of control under setting [6] and 93 % of control under setting [7].
On to `NC(=O)N/N=C\c1ccc(O)cn1`, for which the T/C reads like this: (dose: 100.0 mg/kg/injection, schedule: Q04DX003 (ip), vehicle: acetone) 98 % of control; (dose: 200.0 mg/kg/injection, schedule: Q04DX003 (ip), vehicle: acetone) 93 % of control; (dose: 400.0 mg/kg/injection, schedule: Q04DX003 (ip), vehicle: acetone) 96 % of control.
On to `C#CCOS(=O)OCCCCCCCCCC` (configuration not stated) (tested in a mixture with another compound), for which the T/C was 105 % of control under setting [4], 91 % of control under setting [6] and 94 % of control under setting [7].
Turning to `CCNC(C1CCCCC1)C(C)OC(=O)c1ccc(N)cc1` (configuration not stated), the T/C (dose: 75.0 mg/kg/injection, schedule: Q01DX001 (ip), vehicle: saline) was 98 % of control.
Take `Oc1cccc2ccc(N/N=C/c3ccnc4c(O)cccc34)nc12`: the T/C under setting [9] was 93 % of control, the T/C under setting [10] is 96 % of control and the T/C under setting [11] was 91 % of control.
With `CCCCCCCCCCCCCC(CC1CCCCC1)CC1CCCCC1`, the T/C runs as follows: (dose: 100.0 mg/kg/injection, schedule: Q01DX001 (ip), vehicle: saline with Tween-80) 103 % of control; (dose: 200.0 mg/kg/injection, schedule: Q01DX001 (ip), vehicle: saline with Tween-80) 102 % of control; (dose: 400.0 mg/kg/injection, schedule: Q01DX001 (ip), vehicle: saline with Tween-80) 100 % of control.
With `O=C(C(Br)c1ccccc1)C(Br)c1ccccc1` (configuration not stated), the T/C reads like this: (dose: 6.25 mg/kg/injection, schedule: Q01DX009 (ip), vehicle: saline with Tween-80) 104 % of control; (dose: 12.5 mg/kg/injection, schedule: Q01DX009 (ip), vehicle: saline with Tween-80) 98 % of control and 107 % of control; (dose: 12.5 mg/kg/injection, schedule: Q04DX003 (ip), vehicle: saline with Tween-80) 96 % of control; (dose: 25.0 mg/kg/injection, schedule: Q01DX009 (ip), vehicle: saline with Tween-80) 100 % of control and 110 % of control; (dose: 25.0 mg/kg/injection, schedule: Q04DX003 (ip), vehicle: saline with Tween-80) 90 % of control; under setting [1], 102 % of control. The T/C (dose: 50.0 mg/kg/injection, schedule: Q04DX003 (ip), vehicle: saline with Tween-80) was 101 % of control.
Turning to `O=C(/C=C(\Cl)c1ccc2c(c1)OCO2)OC/C=C\c1ccc2c(c1)OCO2`, the T/C under setting [12] was 94 % of control; the T/C (dose: 100.0 mg/kg/injection, schedule: Q01DX001 (ip), vehicle: Klucel (hydroxypropylcellulose) (HPC)) was 93 % of control; the T/C under setting [2] was 92 % of control; the T/C (dose: 200.0 mg/kg/injection, schedule: Q01DX001 (ip), vehicle: Klucel (hydroxypropylcellulose) (HPC)) is 88 % of control; the T/C under setting [5] is 92 % of control.
For the molecule `COC(=O)c1sc2ccccc2c1C`, the T/C was 104 % of control under setting [9], 98 % of control under setting [10] and 98 % of control under setting [11].
With `N#Cc1cscc1C#N`, the T/C is 96 % of control under setting [13]; 92 % of control under setting [14]; 97 % of control under setting [12]; 88 % of control under setting [2]; 111 % of control under setting [4]; 100 % of control under setting [6]. Further, under setting [7], the T/C is 104 % of control.
Turning to `CC(C)=CCC(CCN1CCOCC1)(C(N)=O)c1cccc2ccccc12` (configuration not stated), the T/C reads like this: (dose: 6.25 mg/kg/injection, schedule: Q04DX003 (ip), vehicle: Klucel (hydroxypropylcellulose) (HPC)) 104 % of control; under setting [13], 96 % of control; (dose: 12.5 mg/kg/injection, schedule: Q04DX003 (ip), vehicle: Klucel (hydroxypropylcellulose) (HPC)) 94 % of control; under setting [14], 104 % of control; under setting [8], 98 % of control; under setting [12], 90 % of control.
Consider `CCCCCCCSc1nsc(SCCCCCCC)c1C#N`, for which the T/C is 104 % of control under setting [2]; 114 % of control under setting [5]; 101 % of control (dose: 400.0 mg/kg/injection, schedule: Q01DX009 (ip), vehicle: Klucel (hydroxypropylcellulose) (HPC)).
As for `COC(=O)C(Br)c1cccc(OC)c1` (configuration not stated), the T/C (dose: 100.0 mg/kg/injection, schedule: Q01DX009 (ip), vehicle: saline sonified) was 100 % of control; the T/C (dose: 100.0 mg/kg/injection, schedule: Q04DX003 (ip), vehicle: saline sonified) is 97 % of control; the T/C (dose: 200.0 mg/kg/injection, schedule: Q01DX009 (ip), vehicle: saline sonified) was 120 % of control; the T/C (dose: 200.0 mg/kg/injection, schedule: Q04DX003 (ip), vehicle: saline sonified) was 101 % of control; the T/C (dose: 400.0 mg/kg/injection, schedule: Q01DX009 (ip), vehicle: saline sonified) was 105 % of control; the T/C (dose: 400.0 mg/kg/injection, schedule: Q04DX003 (ip), vehicle: saline sonified) is 101 % of control.
